The values below come from publication PMC11904604, “MRM-based LC-MS method for accurate C-peptide quantitation” (Journal of Mass Spectrometry and Advances in the Clinical …, 2025).

This series in a line: in vitro. The note with it: human, serum.

Structures are written as SMILES.

In the case of `CC(C)C[C@H](NC(=O)[C@H](C)NC(=O)[C@H](CC(C)C)NC(=O)[C@@H]1CCCN1C(=O)[C@H](CCC(N)=O)NC(=O)[C@H](CC(C)C)NC(=O)[C@H](CO)NC(=O)CNC(=O)[C@H](C)NC(=O)CNC(=O)[C@@H]1CCCN1C(=O)CNC(=O)CNC(=O)CNC(=O)[C@H](CC(C)C)NC(=O)[C@H](CCC(=O)O)NC(=O)[C@@H](NC(=O)[C@H](CCC(N)=O)NC(=O)CNC(=O)[C@@H](NC(=O)[C@H](CCC(N)=O)NC(=O)[C@H](CC(C)C)NC(=O)[C@H](CC(=O)O)NC(=O)[C@H](CCC(=O)O)NC(=O)[C@H](C)NC(=O)[C@@H](N)CCC(=O)O)C(C)C)C(C)C)C(=O)N[C@@H](CCC(=O)O)C(=O)NCC(=O)N[C@@H](CO)C(=O)N[C@@H](CC(C)C)C(=O)N[C@@H](CCC(N)=O)C(=O)O` [C-peptide], the metabolised at 48 h, 0.53 nmol/L is 2.4% and the metabolised at 48 h, 2.88 nmol/L worked out at 6.3%.
